Legend:
[1] = system: vandefitemcel (or SB623 cells); test: PrestoBlue cell viability of vandefitemcel treated with CB-839; type: cell-based, human; conditions: incubation with CB-839, PrestoBlue HS
Experimental: Approximately 50 μL of conditioned medium (CM) was used to determine the glutamate concentration and cell viability. For this assay, PrestoBlue™ high-sensitivity (HS) Cell Viability Reagent (from Thermo Fisher Scientific, Waltham, MA) was used and the reaction absorbance of each sample was read after 2 hours of incubation following the manual procedure provided by the manufacturer.
Glutamate can be involved in cell metabolism, where it is transformed into α-ketoglutarate and then enters into the tricarboxylic acid cycle to generate ATP [25].

glutamate receptor = test: Glutamate receptor blockage on iFbN culture (MEA spike activity); type: cell-based, human; conditions: 50 μM
Experimental: Glutamatergic or GABAergic neurons, 9×10^4 cells per well or 1×10^5 cells per well, were plated in 25 μL volume cell in BrainPhys™ medium supplemented with NeuroCult™ SM1 neuronal supplement and incubated for 30-45 minutes at 37° C. and 5% CO2. For coculturing, vandefitemcel (or SB623) cells or astrocytes were cocultured by adding 10-20 μL of cell solution with 1.5×10^4 cells per well following a new incubation for 45 minutes at 37° C. and 5% CO2. Fresh medium was added to reach a volume of 400 μL per well and cells incubated at 37° C. and 5% CO2. Half of the medium volume was changed every three or four days. To isolate the presynaptic activity on MEAs with iFbNs after 50 days of culture, 50 μM of the broad glutamate receptor antagonist Kynurenic acid (from R&D Systems, Minneapolis, MN) was added at 90 seconds from the start of the recording. Spike activity was assessed to detect the blockage of glutamate receptor activity.
MEA recordings were performed at 37° C. and 5% CO2 using Maestro Edge (from Axion Biosystems, Atlanta, GA). The medium was changed at least two hours before the recordings. Before recordings, levels of CO2 were adjusted to 5%. The duration of each recording was five minutes using AxIS Navigator 3.6.2 with configuration module Neural Real-Time; Spontaneous+Viability from Axion Biosystems with minimum spike rate for active electrodes of five spikes/minute.

spike activity of iFbN culture (glutamate receptor) | Structure (SMILES) | viability of vandefitemcel [1]
 | O=C(Cc1cccc(OC(F)(F)F)c1)Nc1ccc(CCCCc2nnc(NC(=O)Cc3ccccn3)s2)nn1 [CB-839, Telaglenastat] | did not alter the viability
reduction in the spike activity | O=C(O)c1cc(=O)c2ccccc2[nH]1 [kynurenic acid, Kynurenic acid] | 

Source: patent US20250241962A1, “METHODS AND COMPOSITIONS FOR INCREASING NEURONAL ACTIVITY AND SYNAPTIC PLASTICITY” (SanBio, Inc., priority 2024, published 2025)
